{"source": "paper PMC3191538", "about": "(Bioorganic & medicinal chemistry, 2011)", "key": {"HG23 cells": {"test_system": "HG23 cells", "assay": "Cytotoxic effects on HG23 cells", "type": "cell-based", "details": "median toxic dose at 48 hr of treatment, 0-320 μM"}, "[1]": {"test_system": "Norwalk virus 3C protease", "details": "unpublished data; cited from earlier work"}, "[2]": {"test_system": "Norwalk virus (NV) replicon in HG23 cells", "assay": "Antiviral effect in NV replicon-harboring cells", "type": "cell-based", "details": "discussion of Table 1"}}, "note": "“And” between values parts separate entries of the source, which are not always exact repeats. Equal values may be shown once."}
{"molecule": "O=S1(=O)NCCN1Cc1cccc(Oc2ccccc2)c1", "note": "[Compound 2a, 2-(3-Phenoxybenzyl)-1,2,5-thiadiazolidine 1,1-dioxide]", "values": [{"measurement": "TD50", "setting": "HG23 cells", "value": "50 ± 9.2", "unit": "µM"}, {"measurement": "inhibition of Norwalk virus 3C protease (in words)", "setting": "[1]", "value": "does not arise from the inhibition of Norwalk virus 3C protease"}]}
{"molecule": "NC(=O)CN1CCN(Cc2cccc(Oc3ccccc3)c2)S1(=O)=O", "note": "[Compound 13m, 2-[5-(3-Phenoxybenzyl)-1,1-dioxido-1,2,5-thiadiazolidin-2-yl]acetamide]", "values": [{"measurement": "anti-norovirus activity (in words)", "setting": "[2]", "value": "lacked activity"}]}
{"molecule": "O=C(O)CN1CCN(Cc2cccc(Oc3ccccc3)c2)S1(=O)=O", "note": "[Compound 14a, [5-(3-Phenoxybenzyl)-1,1-dioxido-1,2,5-thiadiazolidin-2-yl]acetic acid]", "values": [{"measurement": "anti-norovirus activity (in words)", "setting": "[2]", "value": "active"}]}
{"molecule": "O=S1(=O)NCCN1CC1CCCN(Cc2ccccc2)C1", "note": "(stereo not shown) [Compound 12, 1-Benzyl-3-[(1,1-dioxido-1,2,5-thiadiazolidin-2-yl)methyl]piperidine]", "values": [{"measurement": "anti-norovirus activity (in words)", "setting": "[2]", "value": "devoid of anti-norovirus activity"}]}
{"molecule": "O=S1(=O)N(CCN2CCOCC2)CCN1Cc1cccc(Oc2ccccc2)c1", "note": "[Compound 17a, 4-{2-[5-(3-Phenoxybenzyl)-1,1-dioxido-1,2,5-thiadiazolidin-2-yl]ethyl}morpholine]", "values": [{"measurement": "TD50", "setting": "HG23 cells", "value": "51 ± 3.2 µM and 49 ± 7.7 µM"}]}
{"molecule": "O=C(O)CCCCN1CCN(Cc2cccc(Oc3ccccc3)c2)S1(=O)=O", "note": "[Compound 14d, 5-[5-(3-Phenoxybenzyl)-1,1-dioxido-1,2,5-thiadiazolidin-2-yl]pentanoic acid]", "values": [{"measurement": "anti-norovirus activity (in words)", "setting": "[2]", "value": "active"}]}
